Experimental data as given in article PMC10764553, “Characterization of a thermophilic and glucose-tolerant GH1 β-glucosidase from hot springs and its prospective application in corn stover degradation” (Frontiers in Microbiology, 2023).

How the values were obtained:
LQBG8 [1] = system: T1, LQBG8; assay: p-nitrophenol release at […] nm; assay type: biochemical; settings: optimal temperature (70 °C); pH not stated for this assay
T1 construct: differs from Tepidiforma bonchosmolovskayae WP158066159.1 only at residue 48 (Ser in LQBG8, Gly there)

LQBG8 [2] = system: T1, LQBG8; assay: glucose release (glucose oxidase-peroxidase), Lineweaver-Burk; assay type: biochemical; settings: 70 °C, pH 5.6; cellobiose 0-20 mg/mL (Km lies above the tested range)

Row | Km (LQBG8 [1]) [µM] | Km (LQBG8 [2]) [mg/mL] | Compound
1 | 260 ± 10 | – | O=[N+]([O-])c1ccc(O[C@@H]2O[C@H](CO)[C@@H](O)[C@H](O)[C@H]2O)cc1 [p-nitrophenyl-β-D-glucopyranoside]
2 | – | 28 ± 1.9 | OC[C@H]1O[C@@H](O[C@H]2[C@H](O)[C@@H](O)C(O)O[C@@H]2CO)[C@H](O)[C@@H](O)[C@@H]1O (some centres unmarked) [cellobiose]
